Test results as given in patent US20140155376A1, “PYRROLOPYRAZINE KINASE INHIBITORS” (Hoffmann-La Roche Inc., priority 2010, published 2014).

Target: T1, JAK3 (recombinant human kinase domain; h-jak3(810-1124)) (Homo sapiens, UniProt P52333)
T1 construct: h-jak3(810- 1124)-sf9-c; made in house; host or cells: Sf9 insect cells
Assay: Determination of IC50 of Janus Kinase (JAK) inhibition: JAK3, radioactive end-point assay with 33P-ATP
Assay type: biochemical
Conditions: JAK3 kinase domain; ATP 1.5 uM, peptide 50 uM, 20 minutes, room temperature, 10% DMSO; read-out: Ic50 h-jak3(810-1124)-sf9-c:no additive

T1 sequence (P52333 810-1124): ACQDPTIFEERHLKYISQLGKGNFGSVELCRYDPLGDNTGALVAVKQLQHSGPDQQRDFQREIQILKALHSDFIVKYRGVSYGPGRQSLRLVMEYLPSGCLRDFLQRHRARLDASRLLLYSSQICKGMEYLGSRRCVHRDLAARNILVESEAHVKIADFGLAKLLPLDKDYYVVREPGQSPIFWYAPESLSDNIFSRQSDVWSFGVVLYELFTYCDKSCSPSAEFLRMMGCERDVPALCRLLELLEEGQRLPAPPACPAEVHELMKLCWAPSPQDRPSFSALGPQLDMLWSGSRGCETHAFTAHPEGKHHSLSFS

Row | SMILES | IC50
1 | C[C@H](Cc1ccccc1)NC(=O)c1ccc(-c2cnc3[nH]cc(C(=O)N[C@@H](C)C(C)(C)C)c3n2)s1 [Example I-170, 2-[5-((R)-1-Methyl-2-phenyl-ethylcarbamoyl)-thiophen-2-yl]-5H-pyrrolo[2,3-b]pyrazine-7-carboxylic acid ((S)-1,2,2-trimethyl-propyl)-amide] | 0.58 nM
2 | C[C@H](NC(=O)c1c[nH]c2ncc(C3CC3)nc12)[C@@](C)(O)CC1CC1 [Example I-38, 2-Cyclopropyl-5H-pyrrolo[2,3-b]pyrazine-7-carboxylic acid ((1S,2S)-3-cyclopropyl-2-hydroxy-1,2-dimethyl-propyl)-amide] | 115 nM
3 | CC(O)CCNC(=O)c1c[nH]c2ncc(C3CC3)nc12 (stereo not shown) [Example I-68, 2-Cyclopropyl-5H-pyrrolo[2,3-b]pyrazine-7-carboxylic acid (3-hydroxy-butyl)-amide] | 358 nM
4 | C[C@H](NC(=O)c1c[nH]c2ncc(-c3ccc(C(=O)N[C@H](C)C(C)(C)C)s3)nc12)C(C)(C)C [Example I-209, 2-[5-((R)-1,2,2-Trimethyl-propylcarbamoyl)-thiophen-2-yl]-5H-pyrrolo[2,3-b]pyrazine-7-carboxylic acid ((S)-1,2,2-trimethyl-propyl)-amide] | 0.47 nM
5 | C[C@H](NC(=O)c1c[nH]c2ncc(-c3ccc(C(=O)NCC4CCCC4)s3)nc12)C(C)(C)C [Example I-168, 2-[5-(Cyclo-pentylmethyl-carbamoyl)-thiophen-2-yl]-5H-pyrrolo[2,3-b]pyrazine-7-carboxylic acid ((S)-1,2,2-trimethyl-propyl)-amide] | 0.22 nM
6 | CC(C)(O)[C@@H](NC(=O)c1c[nH]c2ncc(C3CC3)nc12)C1CCCCC1 [Example I-94, 2-Cyclopropyl-5H-pyrrolo[2,3-b]pyrazine-7-carboxylic acid ((S)-1-cyclohexyl-2-hydroxy-2-methyl-propyl)-amide] | 878 nM
7 | Cc1ccc(CNC(=O)c2ccc(-c3cnc4[nH]cc(C(=O)N[C@@H](C)C(C)(C)C)c4n3)s2)o1 [Example I-193, 2-{5-[(5-Methyl-furan-2-ylmethyl)-carbamoyl]-thiophen-2-yl}-5H-pyrrolo[2,3-b]pyrazine-7-carboxylic acid ((S)-1,2,2-trimethyl-propyl)-amide] | 0.42 nM
8 | C[C@H](NC(=O)c1c[nH]c2ncc(-c3ccc(C(=O)NCc4cccc(C(F)(F)F)c4)s3)nc12)C(C)(C)C [Example I-207, 2-[5-(3-Trifluoromethyl-benzylcarbamoyl)-thiophen-2-yl]-5H-pyrrolo[2,3-b]pyrazine-7-carboxylic acid ((S)-1,2,2-trimethyl-propyl)-amide] | 0.73 nM
9 | C[C@H](NC(=O)c1c[nH]c2ncc(-c3ccc(C(=O)NCC(C)(C)C)s3)nc12)C(C)(C)C [Example I-210, 2-[5-(2,2-Dimethyl-propylcarbamoyl)-thiophen-2-yl]-5H-pyrrolo[2,3-b]pyrazine-7-carboxylic acid ((S)-1,2,2-trimethyl-propyl)-amide] | 0.71 nM
10 | CCN(CC)C(=O)c1ccc(-c2cnc3[nH]cc(C(=O)N[C@@H](C)C(C)(C)C)c3n2)s1 [Example I-160, 2-(5-Diethylcarbamoyl-thiophen-2-yl)-5H-pyrrolo[2,3-b]pyrazine-7-carboxylic acid ((S)-1,2,2-trimethyl-propyl)-amide] | 0.32 nM
11 | CC(C)NC(=O)c1c[nH]c2ncc(Oc3ccc4c(c3)[C@H](N)CC4)nc12 [Example I-281, 2-((R)-3-Amino-indan-5-yloxy)-5H-pyrrolo[2,3-b]pyrazine-7-carboxylic acid isopropylamide] | 138 nM
12 | CC(C)(C)[C@@H](CO)NC(=O)c1c[nH]c2ncc(C3CC3)nc12 [Example I-47, 2-Cyclopropyl-5H-pyrrolo[2,3-b]pyrazine-7-carboxylic acid ((S)-1-hydroxymethyl-2,2-dimethyl-propyl)-amide] | 343 nM
13 | CC(NC(=O)c1c[nH]c2ncc(C3CC3)nc12)c1ccccn1 (stereo not shown) [Example I-70, 2-Cyclopropyl-5H-pyrrolo[2,3-b]pyrazine-7-carboxylic acid (1-pyridin-2-yl-ethyl)-amide] | 87 nM
14 | C[C@H](NC(=O)c1c[nH]c2ncc(-c3ccc(C(=O)NCCS(N)(=O)=O)s3)nc12)C(C)(C)C [Example I-173, 2-[5-(2-Sulfamoyl-ethylcarbamoyl)-thiophen-2-yl]-5H-pyrrolo[2,3-b]pyrazine-7-carboxylic acid ((S)-1,2,2-trimethyl-propyl)-amide] | 0.2 nM
15 | CC(C)(O)[C@H](NC(=O)c1c[nH]c2ncc(C3CC3)nc12)C1CC1 [Example I-74, 2-Cyclopropyl-5H-pyrrolo[2,3-b]pyrazine-7-carboxylic acid ((R)-1-cyclopropyl-2-hydroxy-2-methyl-propyl)-amide] | 27.1 nM
16 | CCNC(=O)c1c[nH]c2ncc(Oc3ccccc3)nc12 [Example I-131, 2-Phenoxy-5H-pyrrolo[2,3-b]pyrazine-7-carboxylic acid ethylamide] | 1030 nM
17 | CCC(=O)N[C@@H]1CCc2ccc(Oc3cnc4[nH]cc(C(=O)NC(C)C)c4n3)cc21 [Example I-282, 2-((R)-3-Propionylamino-indan-5-yloxy)-5H-pyrrolo[2,3-b]pyrazine-7-carboxylic acid isopropylamide] | 125 nM
18 | CCNC(=O)c1c[nH]c2ncc(Oc3ccc4ccccc4c3)nc12 [Example I-262, 2-(Naphthalen-2-yloxy)-5H-pyrrolo[2,3-b]pyrazine-7-carboxylic acid ethylamide] | 1870 nM
19 | CC(C)NC(=O)c1c[nH]c2ncc(Oc3ccc4c(c3)CCCC4)nc12 [Example I-240, 2-(5,6,7,8-Tetrahydro-naphthalen-2-yloxy)-5H-pyrrolo[2,3-b]pyrazine-7-carboxylic acid isopropylamide] | 315 nM
20 | C[C@H](NC(=O)c1c[nH]c2ncc(-c3ccc(C(=O)N4CCS(=O)(=O)CC4)s3)nc12)C(C)(C)C [Example I-213, 2-[5-(1,1-Dioxo-1λ^6-thiomorpholine-4-carbonyl)-thiophen-2-yl]-5H-pyrrolo[2,3-b]pyrazine-7-carboxylic acid ((S)-1,2,2-trimethyl-propyl)-amide] | 0.11 nM
21 | N#CCNC(=O)c1c[nH]c2ncc(C3CC3)nc12 [Example I-28, 2-Cyclopropyl-5H-pyrrolo[2,3-b]pyrazine-7-carboxylic acid cyanomethyl-amide] | 681 nM

Continued, values first:

Row | IC50 | SMILES
22 | 103 nM | CC(NC(=O)c1c[nH]c2ncc(Oc3ccc(F)cc3F)nc12)C1CC1 (stereo not shown) [Example I-105, 2-(2,4-Difluoro-phenoxy)-5H-pyrrolo[2,3-b]pyrazine-7-carboxylic acid (1-cyclopropyl-ethyl)-amide]
23 | 190 nM | CC[C@@H](C)NC(=O)c1c[nH]c2ncc(Oc3ccc(F)cc3F)nc12 [Example I-126, 2-(2,4-Difluoro-phenoxy)-5H-pyrrolo[2,3-b]pyrazine-7-carboxylic acid ((R)-sec-butyl)-amide]
24 | 12.4 nM | CCc1cccc(-n2cnc(-c3cnc4[nH]cc(C(=O)N[C@@H](C)C(C)(C)C)c4n3)c2)c1 [Example I-151, 2-[1-(3-Ethyl-phenyl)-1H-imidazol-4-yl]-5H-pyrrolo[2,3-b]pyrazine-7-carboxylic acid ((S)-1,2,2-trimethyl-propyl)-amide]
25 | 0.21 nM | C[C@H](NC(=O)c1c[nH]c2ncc(-c3ccc(C(N)=O)s3)nc12)C(C)(C)C [Example I-215, 2-(5-Carbamoyl-thiophen-2-yl)-5H-pyrrolo[2,3-b]pyrazine-7-carboxylic acid ((S)-1,2,2-trimethyl-propyl)-amide]
26 | 211 nM | C[C@H](NC(=O)c1c[nH]c2ncc(Oc3ccccc3)nc12)C(C)(C)O [Example I-128, 2-Phenoxy-5H-pyrrolo[2,3-b]pyrazine-7-carboxylic acid ((S)-2-hydroxy-1,2-dimethyl-propyl)-amide]
27 | 13.1 nM | C[C@H](NC(=O)c1c[nH]c2ncc(-c3cn(-c4cccc(C(F)(F)F)c4)cn3)nc12)C(C)(C)C [Example I-146, 2-[1-(3-Trifluoromethyl-phenyl)-1H-imidazol-4-yl]-5H-pyrrolo[2,3-b]pyrazine-7-carboxylic acid ((S)-1,2,2-trimethyl-propyl)-amide]
28 | 6460 nM | CCNC(=O)c1c[nH]c2ncc(Oc3cccc(C(C)(C)C)c3)nc12 [Example I-247, 2-(3-tert-Butyl-phenoxy)-5H-pyrrolo[2,3-b]pyrazine-7-carboxylic acid ethylamide]
29 | 353 nM | CC(C)NC(=O)c1c[nH]c2ncc(Oc3cccc4[nH]ccc34)nc12 [Example I-274, 2-(1H-Indol-4-yloxy)-5H-pyrrolo[2,3-b]pyrazine-7-carboxylic acid isopropylamide]
30 | 891 nM | C[C@@H](NC(=O)c1c[nH]c2ncc(Oc3ccc(F)cc3F)nc12)C(C)(C)C [Example I-134, 2-(2,4-Difluoro-phenoxy)-5H-pyrrolo[2,3-b]pyrazine-7-carboxylic acid ((R)-1,2,2-trimethyl-propyl)-amide]
31 | 29.3 nM | CC(C)NC(=O)c1c[nH]c2ncc(Oc3ccc4cc[nH]c4c3)nc12 [Example I-272, 2-(1H-Indol-6-yloxy)-5H-pyrrolo[2,3-b]pyrazine-7-carboxylic acid isopropylamide]
32 | 682 nM | C[C@@H](NC(=O)c1c[nH]c2ncc(Oc3ccccc3)nc12)C(C)(C)O [Example I-116, 2-Phenoxy-5H-pyrrolo[2,3-b]pyrazine-7-carboxylic acid ((R)-2-hydroxy-1,2-dimethyl-propyl)-amide]
33 | 0.54 nM | C#CCNC(=O)c1ccc(-c2cnc3[nH]cc(C(=O)N[C@@H](C)C(C)(C)C)c3n2)s1 [Example I-198, 2-(5-Prop-2-ynylcarbamoyl-thiophen-2-yl)-5H-pyrrolo[2,3-b]pyrazine-7-carboxylic acid ((S)-1,2,2-trimethyl-propyl)-amide]
34 | 143 nM | CC(C)[C@@H](C)NC(=O)c1c[nH]c2ncc(Oc3ccc(F)cc3F)nc12 [Example I-127, 2-(2,4-Difluoro-phenoxy)-5H-pyrrolo[2,3-b]pyrazine-7-carboxylic acid ((R)-1,2-dimethyl-propyl)-amide]
